Source: patent US20150105252A1, “SUBSTITUTED PYRAZOLES AS HERBICIDES” (E I DU PONT DE NEMOURS AND COMPANY, priority 2013, published 2015)

How the values were obtained:
sedge, umbrella = assay: Test C flooded paddy test; format: in vivo, Cyperus difformis; settings: Flood
Method in brief: (§1)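 Ratings were visual and made relative to untreated controls after 13 to 15 greenhouse days.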

rice = assay: Test C flooded paddy test; format: in vivo, Oryza sativa; settings: Flood
Method in brief: as §1

buckwheat, wild = assay: Test E preemergence; format: in vivo, Polygonum convolvulus; settings: 21 days, scale 0 to 100
From the text: (§2) Seeds of plant species selected from bermudagrass (Cynodon dactylon), Surinam grass (Brachiaria decumbens), crabgrass, large (large crabgrass, Digitaria sanguinalis), crabgrass, naked (naked crabgrass, Digitaria nuda), foxtail, green (green foxtail, Setaria viridis), johnsongrass (Sorghum halepense), kochia (Kochia scoparia), morningglory (pitted morningglory, Ipomoea lacunosa), nutsedge, purple (purple nutsedge, Cyperus rotundus), ragweed (common ragweed, Ambrosia elation), mustard, black (black mustard, Brassica nigra), guineagrass (Panicum maximum), dallisgrass (Paspalum dilatatum), barnyardgrass (Echinochloa crus-galli), sandbur (southern sandbur, Cenchrus echinatus), sowthistle (common sowthistle, Sonchus oleraceous), ryegrass, Italian (Italian ryegrass, Lolium multiflorum), signalgrass (broadleaf signalgrass, Brachiaria platyphylla), dayflower, VA (Virginia (VA) dayflower, Commelina virginica), bluegrass (annual bluegrass, Poa annua), quackgrass (Elytrigia repens), mallow (common mallow, Malva sylvestris), buckwheat, wild (wild buckwheat, Polygonum convolvulus), leafy spurge (Euphorbia esula), common chickweed (Stellaria media), wild poinsettia (Euphorbia heterophylla), pigweed, palmer (palmer pigweed, Amaranthus palmeri), and pigweed (redroot pigweed, Amaranthus retroflexus) were planted into a blend of loam soil and sand and treated preemergence with test chemicals formulated in a non-phytotoxic solvent mixture which included a surfactant.
(§3) Treated plants and controls were maintained in a greenhouse for 21 days, after which time all species were compared to controls and visually evaluated. Plant response ratings, summarized in Table E, are based on a scale of 0 to 100 where 0 is no effect and 100 is complete control. A dash (-) response means no test result.

bluegrass = assay: Test E preemergence; format: in vivo, Poa annua; settings: 21 days, scale 0 to 100
From the text: as §2, §3

foxtail, green = assay: Test E preemergence; format: in vivo, Setaria viridis; settings: 21 days, scale 0 to 100
From the text: as §2, §3

ryegrass, Italian = assay: Test E preemergence; format: in vivo, Lolium multiflorum; settings: 21 days, scale 0 to 100
From the text: as §2, §3

sandbur = assay: Test E preemergence; format: in vivo, Cenchrus echinatus; settings: 21 days, scale 0 to 100
From the text: as §2, §3

kochia = assay: Test E preemergence; format: in vivo, Kochia scoparia; settings: 21 days, scale 0 to 100
From the text: as §2, §3

common ragweed = assay: Test F postemergence; format: in vivo, Ambrosia elation; settings: scale 0 to 100
From the text: (§4) Seeds of plant species selected from corn (Zea mays), soybean (Glycine max), velvetleaf (Abutilon theophrasti), lambsquarters (Chenopodium album), wild poinsettia (Euphorbia heterophylla), pigweed, palmer (palmer pigweed, Amaranthus palmeri), common waterhemp (Amaranthus rudis), surinam grass (Brachiaria decumbens), large crabgrass (Digitaria sanguinalis), crabgrass, Brazil (Brazilian crabgrass, Digitaria horizontalis), fall panicum (Panicum dichotomiflorum), giant foxtail (Setaria faberii), green foxtail (Setaria viridis), goosegrass (Eleusine indica), johnsongrass (Sorghum halepense), common ragweed (Ambrosia elation), barnyardgrass (Echinochloa crus-galli), southern sandbur (Cenchrus echinatus), arrowleaf sida (Sida rhombifolia), Italian ryegrass (Lolium multiflorum), dayflower, VA (Virginia (VA) dayflower, Commelina virginica), field bindweed (Convolvulus arvensis), cocklebur (common cocklebur, Xanthium strumarium), morningglory (Ipomoea coccinea), nightshade (eastern black nightshade, Solanum ptycanthum), kochia (Kochia scoparia), yellow nutsedge (Cyperus esculentus), and hairy beggarticks (Bidens pilosa), were planted into a silt loam soil and treated preemergence with test chemicals formulated in a non-phytotoxic solvent mixture which included a surfactant.
(§5) At the same time, plants from these crop and weed species and also horseweed (Canada horseweed, Conyza canadensis), smartweed (ladysthumb smartweed, Polygonum persicaria), waterhemp_RES1, (ALS & Triazine resistant common waterhemp, Amaranthus rudis), and waterhemp_RES2, (ALS & HPPD resistant common waterhemp, Amaranthus rudis) were treated with postemergence applications of test chemicals formulated in the same manner. Plants ranged in height from 2 to 18 cm for postemergence treatments (1- to 4-leaf stage). Treated plants and controls were maintained in a greenhouse for 14 to 21 days, after which time all species were compared to controls and visually evaluated. Plant response ratings, summarized in Table F, are based on a scale of 0 to 100 where 0 is no effect and 100 is complete control. A dash (-) response means no test result.

horseweed = assay: Test F postemergence; format: in vivo, Conyza canadensis; settings: scale 0 to 100
From the text: as §4, §5

dayflower, VA = assay: Test F postemergence; format: in vivo, Commelina virginica; settings: scale 0 to 100
From the text: as §4, §5

pigweed, palmer = assay: Test F postemergence; format: in vivo, Amaranthus palmeri; settings: scale 0 to 100
From the text: as §4, §5

[1] = 31 g ai/ha, scale 0 to 100 (0 no effect, 100 complete control)
[2] = 62 g ai/ha, scale 0 to 100 (0 no effect, 100 complete control)
[3] = 125 g ai/ha, scale 0 to 100 (0 no effect, 100 complete control)

CCc1cc(C(=O)NC2CC2)nn1Cc1ccnc(OCC(F)(F)F)c1 [Compound 200]
Plant response rating, Sedge, Umbrella (sedge, umbrella; [1]): 50
Plant response rating, Sedge, Umbrella (sedge, umbrella; [2]): 80
Plant response rating, Sedge, Umbrella (sedge, umbrella; [3]): 100
Plant response rating, Sedge, Umbrella (sedge, umbrella; 250 g ai/ha, scale 0 to 100): 100
Plant response rating, Rice (rice; [1]): 0
Plant response rating, Rice (rice; [2]): 0
Plant response rating, Rice (rice; [3]): 15
Plant response rating, Rice (rice; 250 g ai/ha, scale 0 to 100): 20

CCc1cc(C(=O)NC(C)C)nn1Cc1ccnc(C(F)(F)F)c1 [Compound 103]
Plant response rating, Buckwheat, Wild (buckwheat, wild; 16 g ai/ha): 95
Plant response rating, Buckwheat, Wild (buckwheat, wild; 31 g ai/ha): 100
Plant response rating, Buckwheat, Wild (buckwheat, wild; 62 g ai/ha): 100
Plant response rating, Buckwheat, Wild (buckwheat, wild; 125 g ai/ha): 100
Plant response rating, Buckwheat, Wild (buckwheat, wild; 250 g ai/ha): 100
Plant response rating, Bluegrass (bluegrass; 16 g ai/ha): 40
Plant response rating, Bluegrass (bluegrass; 31 g ai/ha): 90
Plant response rating, Bluegrass (bluegrass; 62 g ai/ha): 95
Plant response rating, Bluegrass (bluegrass; 125 g ai/ha): 98
Plant response rating, Bluegrass (bluegrass; 250 g ai/ha): 100
Plant response rating, Foxtail, Green (foxtail, green; 16 g ai/ha): 100
Plant response rating, Foxtail, Green (foxtail, green; 31 g ai/ha): 100
Plant response rating, Foxtail, Green (foxtail, green; 62 g ai/ha): 100
Plant response rating, Foxtail, Green (foxtail, green; 125 g ai/ha): 100
Plant response rating, Foxtail, Green (foxtail, green; 250 g ai/ha): 100
Plant response rating, Ryegrass, Italian (ryegrass, Italian; 16 g ai/ha): 50
Plant response rating, Ryegrass, Italian (ryegrass, Italian; 31 g ai/ha): 98
Plant response rating, Ryegrass, Italian (ryegrass, Italian; 62 g ai/ha): 100
Plant response rating, Ryegrass, Italian (ryegrass, Italian; 125 g ai/ha): 100
Plant response rating, Ryegrass, Italian (ryegrass, Italian; 250 g ai/ha): 100
Plant response rating, Sandbur (sandbur; 16 g ai/ha): 40
Plant response rating, Sandbur (sandbur; 31 g ai/ha): 70
Plant response rating, Sandbur (sandbur; 62 g ai/ha): 100
Plant response rating, Sandbur (sandbur; 125 g ai/ha): 100
Plant response rating, Sandbur (sandbur; 250 g ai/ha): 100
Plant response rating, Kochia (kochia; 16 g ai/ha): 95
Plant response rating, Kochia (kochia; 31 g ai/ha): 100
Plant response rating, Kochia (kochia; 62 g ai/ha): 100
Plant response rating, Kochia (kochia; 125 g ai/ha): 100
Plant response rating, Kochia (kochia; 250 g ai/ha): 100

CCc1cc(C(=O)NC2CC2)nn1Cc1cc(C(F)(F)C(F)(F)F)nn1C [Compound 226]
Plant response rating, Sedge, Umbrella (sedge, umbrella; [1]): 20
Plant response rating, Sedge, Umbrella (sedge, umbrella; [2]): 25
Plant response rating, Sedge, Umbrella (sedge, umbrella; [3]): 85
Plant response rating, Rice (rice; [1]): 0
Plant response rating, Rice (rice; [2]): 0
Plant response rating, Rice (rice; [3]): 0

CCONC(=O)c1cc(OCC)n(Cc2ccnc(C(F)(F)F)c2)n1 [Compound 195]
Plant response rating, Sedge, Umbrella (sedge, umbrella; [1]): 0
Plant response rating, Sedge, Umbrella (sedge, umbrella; [2]): 75
Plant response rating, Sedge, Umbrella (sedge, umbrella; [3]): 80
Plant response rating, Sedge, Umbrella (sedge, umbrella; 250 g ai/ha, scale 0 to 100): 85
Plant response rating, Rice (rice; [1]): 0
Plant response rating, Rice (rice; [2]): 0
Plant response rating, Rice (rice; [3]): 0
Plant response rating, Rice (rice; 250 g ai/ha, scale 0 to 100): 20

CCCNC(=O)c1cc(CCCl)n(Cc2ccnc(C(F)(F)F)c2)n1 [Compound 145]
Plant response rating, Sedge, Umbrella (sedge, umbrella; [1]): 100
Plant response rating, Sedge, Umbrella (sedge, umbrella; [2]): 100
Plant response rating, Sedge, Umbrella (sedge, umbrella; 125 g ai/ha, scale 0 to 100): 100
Plant response rating, Sedge, Umbrella (sedge, umbrella; 250 g ai/ha, scale 0 to 100): 100
Plant response rating, Rice (rice; [1]): 0
Plant response rating, Rice (rice; [2]): 20
Plant response rating, Rice (rice; 125 g ai/ha, scale 0 to 100): 25
Plant response rating, Rice (rice; 250 g ai/ha, scale 0 to 100): 40

CCOc1cc(C(=O)NC(C)C)nn1Cc1ccnc(C(F)(F)F)c1 [Compound 188]
Plant response rating, Common Ragweed (common ragweed; Postemergence, 31 g ai/ha): 50
Plant response rating, Common Ragweed (common ragweed; Postemergence, 125 g ai/ha): 70
Plant response rating, Common Ragweed (common ragweed; Postemergence, 250 g ai/ha): 85
Plant response rating, Common Ragweed (common ragweed; postemergence, 62 g ai/ha): 60
Plant response rating, Common Ragweed (common ragweed; postemergence, 500 g ai/ha): 98
Plant response rating, Horseweed (horseweed; Postemergence, 31 g ai/ha): 20
Plant response rating, Horseweed (horseweed; Postemergence, 125 g ai/ha): 30
Plant response rating, Horseweed (horseweed; Postemergence, 250 g ai/ha): 40
Plant response rating, Horseweed (horseweed; postemergence, 62 g ai/ha): 30
Plant response rating, Horseweed (horseweed; postemergence, 500 g ai/ha): 50
Plant response rating, Dayflower, VA (dayflower, VA; Postemergence, 31 g ai/ha): 40
Plant response rating, Dayflower, VA (dayflower, VA; Postemergence, 125 g ai/ha): 70
Plant response rating, Dayflower, VA (dayflower, VA; Postemergence, 250 g ai/ha): 90
Plant response rating, Dayflower, VA (dayflower, VA; postemergence, 62 g ai/ha): 50
Plant response rating, Dayflower, VA (dayflower, VA; postemergence, 500 g ai/ha): 90
Plant response rating, Pigweed, Palmer (pigweed, palmer; Postemergence, 31 g ai/ha): 50
Plant response rating, Pigweed, Palmer (pigweed, palmer; Postemergence, 125 g ai/ha): 50
Plant response rating, Pigweed, Palmer (pigweed, palmer; Postemergence, 250 g ai/ha): 60
Plant response rating, Pigweed, Palmer (pigweed, palmer; postemergence, 62 g ai/ha): 50
Plant response rating, Pigweed, Palmer (pigweed, palmer; postemergence, 500 g ai/ha): 70

CCOc1cc(C(=O)NC2CC2)nn1Cc1ccnc(C(F)(F)F)c1 [Compound 189]
Plant response rating, Buckwheat, Wild (buckwheat, wild; 4 g ai/ha): 70
Plant response rating, Buckwheat, Wild (buckwheat, wild; 8 g ai/ha): 100
Plant response rating, Buckwheat, Wild (buckwheat, wild; 16 g ai/ha): 100
Plant response rating, Buckwheat, Wild (buckwheat, wild; 31 g ai/ha): 100
Plant response rating, Buckwheat, Wild (buckwheat, wild; 62 g ai/ha): 100
Plant response rating, Bluegrass (bluegrass; 4 g ai/ha): 0
Plant response rating, Bluegrass (bluegrass; 8 g ai/ha): 0
Plant response rating, Bluegrass (bluegrass; 16 g ai/ha): 50
Plant response rating, Bluegrass (bluegrass; 31 g ai/ha): 50
Plant response rating, Bluegrass (bluegrass; 62 g ai/ha): 80
Plant response rating, Foxtail, Green (foxtail, green; 4 g ai/ha): 0
Plant response rating, Foxtail, Green (foxtail, green; 8 g ai/ha): 20
Plant response rating, Foxtail, Green (foxtail, green; 16 g ai/ha): 100
Plant response rating, Foxtail, Green (foxtail, green; 31 g ai/ha): 100
Plant response rating, Foxtail, Green (foxtail, green; 62 g ai/ha): 100
Plant response rating, Ryegrass, Italian (ryegrass, Italian; 4 g ai/ha): 0
Plant response rating, Ryegrass, Italian (ryegrass, Italian; 8 g ai/ha): 0
Plant response rating, Ryegrass, Italian (ryegrass, Italian; 16 g ai/ha): 20
Plant response rating, Ryegrass, Italian (ryegrass, Italian; 31 g ai/ha): 50
Plant response rating, Ryegrass, Italian (ryegrass, Italian; 62 g ai/ha): 100
Plant response rating, Sandbur (sandbur; 4 g ai/ha): 0
Plant response rating, Sandbur (sandbur; 8 g ai/ha): 0
Plant response rating, Sandbur (sandbur; 16 g ai/ha): 0
Plant response rating, Sandbur (sandbur; 31 g ai/ha): 20
Plant response rating, Sandbur (sandbur; 62 g ai/ha): 90
Plant response rating, Kochia (kochia; 4 g ai/ha): 98
Plant response rating, Kochia (kochia; 8 g ai/ha): 100
Plant response rating, Kochia (kochia; 16 g ai/ha): 100
Plant response rating, Kochia (kochia; 31 g ai/ha): 100
Plant response rating, Kochia (kochia; 62 g ai/ha): 100
